Test results published in patent US7205295B2, “Benzoxazin-3-ones and derivatives thereof as therapeutic agents” (Warner-Lambert Company LLC, priority 2002, dated 2007).
pIC50: −log10 of the molar value.

target: T1, PI3Kγ (p101/p110γ protein) (Homo sapiens, UniProt P48736); test: PI3Kγ In Vitro Kinase Assay; type: biochemical; settings: purified recombinant p101/p110γ with G protein β1/γ2 subunits; 20 μM ATP, 25 μM PIP2; 20 minutes at room temperature
T1 construct: HA; made in house; host or cells: Spodoptera frugiperda (Sf9) cells, baculovirus co-infection
Procedure, shortened: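 Reactions ran 20 min at room temperature, pairing lipid micelles (25 μM PIP2, 300 μM PE, 0.02% Na-cholate, 10 mM MgCl2) with 20 μM ATP including [γ-32P]ATP. The enzyme was recombinant p101/p110γ (2.7 nM) with G protein β1/γ2 (57.7 nM). [32P]PIP3 product was stopped with H3PO4, filtered and scintillation counted.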

T1 sequence (P48736 whole entry, species assumed): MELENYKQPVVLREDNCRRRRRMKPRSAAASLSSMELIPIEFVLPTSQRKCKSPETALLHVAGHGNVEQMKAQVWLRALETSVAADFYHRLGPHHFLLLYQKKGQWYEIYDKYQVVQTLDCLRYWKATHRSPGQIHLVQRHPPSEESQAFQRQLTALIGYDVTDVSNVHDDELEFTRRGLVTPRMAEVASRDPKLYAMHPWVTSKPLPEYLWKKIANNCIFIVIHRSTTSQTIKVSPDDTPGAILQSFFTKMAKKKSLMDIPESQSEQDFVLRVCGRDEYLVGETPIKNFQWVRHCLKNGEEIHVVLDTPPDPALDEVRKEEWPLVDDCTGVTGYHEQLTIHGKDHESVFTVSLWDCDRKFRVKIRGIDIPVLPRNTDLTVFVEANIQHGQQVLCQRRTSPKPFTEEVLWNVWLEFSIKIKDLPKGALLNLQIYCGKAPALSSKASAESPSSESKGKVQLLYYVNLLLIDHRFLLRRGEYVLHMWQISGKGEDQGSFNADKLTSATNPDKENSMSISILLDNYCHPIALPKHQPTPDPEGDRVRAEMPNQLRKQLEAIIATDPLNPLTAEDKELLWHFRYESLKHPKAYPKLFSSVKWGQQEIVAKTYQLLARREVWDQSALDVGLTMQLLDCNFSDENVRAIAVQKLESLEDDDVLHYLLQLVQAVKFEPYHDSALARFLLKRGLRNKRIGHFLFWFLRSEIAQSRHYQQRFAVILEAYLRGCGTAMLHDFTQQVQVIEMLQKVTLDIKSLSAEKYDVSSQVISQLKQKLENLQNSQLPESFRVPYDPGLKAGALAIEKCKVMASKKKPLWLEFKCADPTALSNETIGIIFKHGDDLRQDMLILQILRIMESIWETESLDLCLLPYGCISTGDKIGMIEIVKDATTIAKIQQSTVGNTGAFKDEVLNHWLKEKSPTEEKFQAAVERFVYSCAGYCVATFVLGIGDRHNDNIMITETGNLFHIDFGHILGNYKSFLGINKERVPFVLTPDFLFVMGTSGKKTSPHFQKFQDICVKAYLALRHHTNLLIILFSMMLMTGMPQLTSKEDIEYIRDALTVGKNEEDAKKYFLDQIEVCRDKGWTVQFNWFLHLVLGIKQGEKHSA
T1 sequence (Q8WYR1 whole entry partner, species assumed): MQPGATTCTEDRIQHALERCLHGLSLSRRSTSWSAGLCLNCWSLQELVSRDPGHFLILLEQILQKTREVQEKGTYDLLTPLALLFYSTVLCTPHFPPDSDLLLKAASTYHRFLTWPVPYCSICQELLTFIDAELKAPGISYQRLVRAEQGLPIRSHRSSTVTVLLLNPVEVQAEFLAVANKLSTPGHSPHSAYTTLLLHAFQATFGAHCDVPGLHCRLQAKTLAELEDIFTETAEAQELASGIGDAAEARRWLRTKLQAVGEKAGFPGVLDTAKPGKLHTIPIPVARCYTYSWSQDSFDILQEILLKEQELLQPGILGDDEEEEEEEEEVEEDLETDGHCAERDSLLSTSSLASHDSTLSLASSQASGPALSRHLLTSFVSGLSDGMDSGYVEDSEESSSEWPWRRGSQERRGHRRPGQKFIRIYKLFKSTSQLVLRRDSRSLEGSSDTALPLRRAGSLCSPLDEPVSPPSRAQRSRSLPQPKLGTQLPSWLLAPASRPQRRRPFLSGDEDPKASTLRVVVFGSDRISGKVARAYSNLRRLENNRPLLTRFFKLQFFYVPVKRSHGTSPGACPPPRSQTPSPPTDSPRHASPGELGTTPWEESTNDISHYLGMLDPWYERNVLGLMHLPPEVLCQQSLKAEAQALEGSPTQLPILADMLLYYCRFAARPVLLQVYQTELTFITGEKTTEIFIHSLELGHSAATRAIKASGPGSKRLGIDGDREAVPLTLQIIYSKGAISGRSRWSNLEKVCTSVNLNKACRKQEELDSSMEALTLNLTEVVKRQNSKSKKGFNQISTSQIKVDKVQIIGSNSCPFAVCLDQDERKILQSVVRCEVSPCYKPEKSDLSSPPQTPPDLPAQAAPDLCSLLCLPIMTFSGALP

Row | pIC50 | SMILES
1 | 8.22 | O=C1NC(=S)SC1=Cc1ccc2c(c1)N(Cc1cccc(-c3ccccc3)c1)C(=O)CO2 [Example 38, 4-Biphenyl-3-ylmethyl-6-(4-oxo-2-thioxo-thiazolidin-5-ylidenemethyl)-4H-1,4-benzoxazin-3-one]
2 | 7.68 | N#Cc1cccc(CN2C(=O)COc3ccc(C=C4SC(=S)NC4=O)cc32)c1 [Example 149, 3-[3-Oxo-6-(4-oxo-2-thioxo-thiazolidin-5-ylidenemethyl)-2,3-dihydro-benzo[1,4]oxazin-4-ylmethyl]-benzonitrile]
3 | 7.89 | O=C1NC(=S)SC1=Cc1ccc2c(c1)N(Cc1cccc(OCc3ccccc3)c1)C(=O)CO2 [Example 15, 4-(3-Benzyloxy-benzyl)-6-(4-oxo-2-thioxo-thiazolidin-5-ylidenemethyl)-4H-1,4-benzoxazin-3-one]
4 | 7.60 | Cc1cc(CN2C(=O)COc3c(F)cc(C=C4SC(=S)NC4=O)cc32)c(C)o1 [Example 318, 4-(2,5-Dimethyl-furan-3-ylmethyl)-8-fluoro-6-(4-oxo-2-thioxo-thiazolidin-5-ylidenemethyl)-4H-benzo[1,4]oxazin-3-one]
5 | 8.05 | O=C1NC(=S)SC1=Cc1ccc2c(c1)N(Cc1cccc(Oc3ccccc3)c1)C(=O)CO2 [Example 170, 6-(4-Oxo-2-thioxo-thiazolidin-5-ylidenemethyl)-4-(3-phenoxy-benzyl)-4H-1,4-benzoxazin-3-one]
6 | 8.00 | COc1ccc(CN2C(=O)COc3ccc(C=C4SC(=S)NC4=O)cc32)cc1C(F)(F)F [Example 167, 4-(4-Methoxy-3-trifluoromethyl-benzyl)-6-(4-oxo-2-thioxo-thiazolidin-5-ylidenemethyl)-4H-1,4-benzoxazin-3-one]
7 | 6.49 | CC(C)(C)c1cc(CN2C(=O)COc3c(Cl)cc(C=C4SC(=S)NC4=O)cc32)cc(C(C)(C)C)c1 [Example 47, 8-Chloro-4-(3,5-di-tert-butyl-benzyl)-6-(4-oxo-2-thioxo-thiazolidin-5-ylidenemethyl)-4H-1,4-benzoxazin-3-one]
8 | 7.70 | CN(C)S(=O)(=O)c1cccc(CN2C(=O)COc3ccc(C=C4SC(=O)NC4=O)cc32)c1 [Example 256, 3-[6-(2,4-Dioxo-thiazolidin-5-ylidenemethyl)-3-oxo-2,3-dihydro-1,4-benzoxazin-4-ylmethyl]-N,N-dimethyl-benzenesulfonamide]
9 | 8.15 | CC(C)(C)c1cc(CN2C(=O)COc3c(F)cc(/C=C4\SC(=O)NC4=O)cc32)cc(C(C)(C)O)c1 [Example 276, 5-[1-{4-[3-tert-Butyl-5-(1-hydroxy-1-methyl-ethyl)-benzyl]-8-fluoro-3-oxo-3,4-dihydro-2H-benzo[1,4]oxazin-6-yl}-meth-(Z)-ylidene]-thiazolidine-2,4-dione]
10 | 7.35 | CN1C(=O)COc2ccc(C=C3SC(=S)NC3=O)cc21 [Example 2, 4-Methyl-6-(4-oxo-2-thioxo-thiazolidin-5-ylidenemethyl)-4H-1,4-benzoxazin-3-one]
11 | 8.70 | CC(C)(C)c1ccc(CN2C(=O)COc3ccc(C=C4SC(=S)NC4=O)cc32)cc1 [Example 36, 4-(4-tert-Butyl-benzyl)-6-(4-oxo-2-thioxo-thiazolidin-5-ylidenemethyl)-4H-1,4-benzoxazin-3-one]
12 | 7.28 | O=C1NC(=S)SC1=Cc1ccc2c(c1)N(Cc1ccc(C=Cc3ccccc3)cc1)C(=O)CO2 [Example 162, 6-(4-Oxo-2-thioxo-thiazolidin-5-ylidenemethyl)-4-(4-styryl-benzyl)-4H-1,4-benzoxazin-3-one]
13 | 6.47 | CC(C)(C)c1cc(CN2C(=O)COc3ccc(C=C4SC(=S)NC4=O)cc32)cc(C(C)(C)C)n1 [Example 45, 4-(2,6-Di-tert-butyl-pyridin-4-ylmethyl)-6-(4-oxo-2-thioxo-thiazolidin-5-ylidenemethyl)-4H-1,4-benzoxazin-3-one]
14 | 6.61 | CC(C)(C)c1cc(CN2C(=O)COc3ccc(C=C4SC(=S)NC4=O)cc32)n(Cc2ccccc2)n1 [Example 327, 4-(2-Benzyl-5-tert-butyl-2H-pyrazol-3-ylmethyl)-6-(4-oxo-2-thioxo-thiazolidin-5-ylidenemethyl)-4H-benzo[1,4]oxazin-3-one]
15 | 7.33 | O=C1NC(=S)SC1=Cc1cc(F)c2c(c1)N(Cc1cncc(Cl)c1)C(=O)CO2 [Example 330, 4-(5-Chloro-pyridin-3-ylmethyl)-8-fluoro-6-(4-oxo-2-thioxo-thiazolidin-5-ylidenemethyl)-4H-1,4-benzoxazin-3-one]
16 | 6.78 | COc1ccc(CN2C(=O)COc3ccc(C=C4SC(=S)NC4=O)cc32)cc1 [Example 182, 4-(4-Methoxy-benzyl)-6-(4-oxo-2-thioxo-thiazolidin-5-ylidenemethyl)-4H-1,4-benzoxazin-3-one]
17 | 9.00 | Cc1cc(CN2C(=O)COc3ccc(C=C4SC(=S)NC4=O)cc32)ccc1F [Example 306, 4-(4-Fluoro-3-methyl-benzyl)-6-(4-oxo-2-thioxo-thiazolidin-5-ylidenemethyl)-4H-benzo[1,4]oxazin-3-one]
18 | 8.05 | O=C1NC(=S)SC1=Cc1cc(F)c2c(c1)N(CCOc1ccc(F)cc1)C(=O)CO2 [Example 310, 8-Fluoro-4-[2-(4-fluoro-phenoxy)-ethyl]-6-(4-oxo-2-thioxo-thiazolidin-5-ylidenemethyl)-4H-benzo[1,4]oxazin-3-one]
19 | 7.68 | Cc1cc(CN2C(=O)COc3ccc(C=C4SC(=S)NC4=O)cc32)c(C)o1 [Example 317, 4-(2,5-Dimethyl-furan-3-ylmethyl)-6-(4-oxo-2-thioxo-thiazolidin-5-ylidenemethyl)-4H-benzo[1,4]oxazin-3-one]
20 | 7.85 | CCN(CC)Cc1ccc(CN2C(=O)COc3c(F)cc(C=C4SC(=S)NC4=O)cc32)cc1 [Example 72, 4-(4-Diethylaminomethyl-benzyl)-8-fluoro-6-(4-oxo-2-thioxo-thiazolidin-5-ylidenemethyl)-4H-1,4-benzoxazin-3-one]
21 | 9.00 | O=C1NC(=O)C(=Cc2cc(F)c3c(c2)N(Cc2ccc(F)cc2)C(=O)CO3)S1 [Example 298, 5-[8-Fluoro-4-(4-fluoro-benzyl)-3-oxo-3,4-dihydro-2H-benzo[1,4]oxazin-6-ylmethylene]-thiazolidine-2,4-dione]
22 | 7.80 | CC(C)(C)c1cc(I)cc(CN2C(=O)COc3ccc(C=C4SC(=S)NC4=O)cc32)c1 [Example 52, 4-(3-tert-Butyl-5-iodo-benzyl)-6-(4-oxo-2-thioxo-thiazolidin-5-ylidenemethyl)-4H-1,4-benzoxazin-3-one]
23 | 8.52 | O=C1NC(=S)SC1=Cc1ccc2c(c1)N(Cc1ccccc1CO)C(=O)CO2 [Example 24, 4-(2-Hydroxymethyl-benzyl)-6-(4-oxo-2-thioxo-thiazolidin-5-ylidenemethyl)-4H-1,4-benzoxazin-3-one]
24 | 7.74 | CC(C)(C)c1cccc(CN2C(=O)COc3ccc(C=C4SC(=S)NC4=O)cc32)c1 [Example 263, 4-(3-tert-Butyl-benzyl)-6-(4-oxo-2-thioxo-thiazolidin-5-ylidenemethyl)-4H-1,4-benzoxazin-3-one]
25 | 8.15 | O=C1NC(=S)SC1=Cc1ccc2c(c1)N(Cc1cccs1)C(=O)CO2 [Example 333, 6-(4-Oxo-2-thioxo-thiazolidin-5-ylidenemethyl)-4-thiophen-2-ylmethyl-4H-1,4-benzoxazin-3-one]
26 | 7.21 | O=C1COc2c(Cl)cc(C=C3SC(=S)NC3=O)cc2N1 [Example 49, 8-Chloro-6-(4-oxo-2-thioxo-thiazolidin-5-ylidenemethyl)-4H-1,4-benzoxazin-3-one]
